Laboratory results taken from US20100152259A1 (Merck & Co Inc., priority 2006, published 2010).

The molecules below were run on rabbit aortic slices (assay: vessel relaxation assay (tissue-based, rabbit aortic slices)). Conditions: Oryctolagus cuniculus.
Type: cell-based

**Q.** How did the EC50 turn out when `CCCCc1nc(Cl)c(C(=O)OC(C)OC(=O)OCCCC[C@H](CO[N+](=O)[O-])O[N+](=O)[O-])n1Cc1ccc(-c2ccccc2-c2nn[nH]n2)cc1` (single isomer, unassigned) [Compound 2] was run?
**A.** Its EC50 is 1000 nM.

**Q.** For `CCOc1nc2cccc(C(=O)OC(C)(C)OC(=O)OCCCC[C@H](CO[N+](=O)[O-])O[N+](=O)[O-])c2n1Cc1ccc(-c2ccccc2-c2nnn[nH]2)cc1` [Example 9, 1-[({[(5R)-5,6-bis(nitrooxy)hexyl]oxy}carbonyl)oxy]-1-methylethyl 2-ethoxy-1-{[2′-(1H-tetrazol-5-yl)biphenyl-4-yl]methy}-1H-benzimidazole-7-carboxylate], which EC50 is on record?
**A.** The EC50 was 990 nM.

**Q.** With `CCOc1nc2cccc(C(=O)OC(C)(C)OC(=O)OCCOC[C@H](CO[N+](=O)[O-])O[N+](=O)[O-])c2n1Cc1ccc(-c2ccccc2-c2nnn[nH]2)cc1` [Example 11, 1-{[(2-{[(2R)-2,3-bis(nitrooxy)propyl]oxy}ethoxy)carbonyl]oxy}-1-methylethyl 2-ethoxy-1-{[2′-(1H-tetrazol-5-yl)biphenyl-4-yl]methyl}-1H-benzimidazole-7-carboxylate] as the molecule, how does the EC50 read?
**A.** Its EC50 is 2300 nM.

**Q.** `CCCCc1nc(Cl)c(C(=O)OC(C)OC(=O)OCCC(C)(C)CC(CO[N+](=O)[O-])O[N+](=O)[O-])n1Cc1ccc(-c2ccccc2-c2nnn[nH]2)cc1` (stereo not drawn) [Example 4, 1-[({[3,3-dimethyl-5,6-bis(nitrooxy)hexyl]oxy}carbonyl)oxy]ethyl 2-butyl-4-chloro-1-{[2′-(1H-tetrazol-5-yl)biphenyl-4-yl]methyl}-1H-imidazole-5-carboxylate] was tested. Which EC50 did it give?
**A.** Its EC50 is 1100 nM.

**Q.** With `CCOc1nc2cccc(C(=O)OC(C)(C)OC(=O)OCCCCC(CO[N+](=O)[O-])O[N+](=O)[O-])c2n1Cc1ccc(-c2ccccc2-c2nnn[nH]2)cc1` (stereo not drawn) [Example 8, 1-[({[5,6-bis(nitrooxy)hexyl]oxy}carbonyl)oxy]-1-methylethyl 2-ethoxy-1-{[2′-(1H-tetrazol-5-yl)biphenyl-4-yl]methyl}-1H-benzimidazole-7-carboxylate] as the molecule, how does the EC50 read?
**A.** The EC50 was 370 nM.

**Q.** Which EC50 does the source give for `CCCCc1nc(Cl)c(C(=O)OCCOCCO[N+](=O)[O-])n1Cc1ccc(-c2ccccc2-c2nn[nH]n2)cc1` [Compound 1, reference compound] here?
**A.** Its EC50 is 6000 nM.

**Q.** How did the EC50 turn out when `CCCCc1nc(Cl)c(C(=O)OC(C)OC(=O)OCCOCC(CO[N+](=O)[O-])O[N+](=O)[O-])n1Cc1ccc(-c2ccccc2-c2nnn[nH]2)cc1` (stereo not drawn) [Compound 3] was run?
**A.** Its EC50 is 5000 nM.

**Q.** How did the EC50 turn out when `CCOc1nc2cccc(C(=O)OC(C)(C)OC(=O)OCC[C@@H](CO[N+](=O)[O-])O[N+](=O)[O-])c2n1Cc1ccc(-c2ccccc2-c2nnn[nH]2)cc1` [Example 12, 1-[({[(3S)-3,4-bis(nitrooxy)butyl]oxy}carbonyl)oxy]-1-methylethyl 2-ethoxy-1-{[2′-(1H-tetrazol-5-yl)biphenyl-4-yl]methyl}-1H-benzimidazole-7-carboxylate] was run?
**A.** The EC50 was 3730 nM.

**Q.** `CCOc1nc2cccc(C(=O)OC(C)(C)OC(=O)OCCOCC(CO[N+](=O)[O-])O[N+](=O)[O-])c2n1Cc1ccc(-c2ccccc2-c2nnn[nH]2)cc1` (stereo not drawn) [Example 10] was tested. Which EC50 did it give?
**A.** The EC50 was 2380 nM.
